Literature values as cited in patent US20250366801A1, “ESTIMATION OF CEREBROVASCULAR RESERVE” (MedTrace Pharma A/S, priority 2024, published 2025).

Details: single standard dose of 1000 mg intravenously; patients with atherosclerotic cerebrovascular disease (Vagal 2009)

CC(=O)Nc1nnc(S(N)(=O)=O)s1 [Acetazolamide, acetazolamide]
time of peak cerebral blood flow augmentation after the intravenous bolus injection: 10 to 15 min
